Bridge positions count the residues as written; N and C are the ends. Square brackets hold non-standard residues; d marks the D form. Peptide text beside a SMILES is read from it. dPhe(4-Cl) = N[C@H](Cc1ccc(Cl)cc1)C(=O)O; dPhe(4-F) = N[C@H](Cc1ccc(F)cc1)C(=O)O; d2Nal = N[C@H](Cc1ccc2ccccc2c1)C(=O)O; NMeL = CN[C@@H](CC(C)C)C(=O)O; ΔPro = O=C(O)[C@@H]1C=CCN1; Dap = NC[C@H](N)C(=O)O; βAla = NCCC(=O)O
Columns and labels:
[1] = biological target: T1, Gonadotropin-releasing hormone receptor (Rattus norvegicus, UniProt P30969); assay: Affinity for rat gonadotrophin releasing hormone (GnRH) receptor using HEK293 cells transfected with rat Gonadotropin-releasing hormone receptor; assay type: cell-based
T1 sequence (P30969 whole entry): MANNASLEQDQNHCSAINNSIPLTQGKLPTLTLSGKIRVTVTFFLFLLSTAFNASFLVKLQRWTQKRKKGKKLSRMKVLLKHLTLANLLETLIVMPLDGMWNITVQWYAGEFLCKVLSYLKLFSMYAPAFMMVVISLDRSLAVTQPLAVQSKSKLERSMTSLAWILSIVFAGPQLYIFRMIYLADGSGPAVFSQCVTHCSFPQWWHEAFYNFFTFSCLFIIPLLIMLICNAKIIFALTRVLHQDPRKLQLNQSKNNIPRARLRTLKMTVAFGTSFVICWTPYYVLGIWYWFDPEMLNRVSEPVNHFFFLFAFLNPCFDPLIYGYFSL

[2] = species on record: Rattus norvegicus; assay: Antiovulatory potency at 1000 ug/rat expressed as rats ovulating by total no. of rats (4/4); assay type: functional
[3] = species on record: Rattus norvegicus; assay: Antiovulatory potency at 2.5 ug/rat expressed as rats ovulating by total no. of rats (2/8); assay type: functional
[4] = species on record: Rattus norvegicus; assay: Antiovulatory potency at 1 ug/rat expressed as rats ovulating by total no. of rats (5/7); assay type: functional

SMILES	Ki [1]	Ki ([1]; hek293)	also measured
CC(=O)N[C@H](Cc1ccc2ccccc2c1)C(=O)N[C@@H]1CC(=O)NC[C@@H](C(=O)N2CCC[C@H]2C(=O)N[C@H](C)C(N)=O)NC(=O)[C@H](CC(C)C)NC(=O)[C@@H](Cc2ccc3ccccc3c2)NC(=O)[C@H](CCCNC(=N)N)NC(=O)[C@H](C)NC(=O)[C@@H](Cc2cccnc2)NC1=O [listing 1 of 2 here]	–	–	Ovulating rats [2]: 4
CC(=O)N[C@H](Cc1ccc2ccccc2c1)C(=O)N[C@@H]1CCC(=O)NCCCC[C@@H]2NC(=O)[C@H](CC(C)C)NC(=O)[C@@H](Cc3ccc4ccccc4c3)NC(=O)[C@H](CCCN=C(N)N)NC(=O)[C@H](CC(=O)NC[C@@H](C(N)=O)NC(=O)[C@@H]3CCCN3C2=O)NC(=O)[C@@H](Cc2cccnc2)NC1=O [listing 1 of 2 here]	–	15 nM	–
CC(C)C[C@@H]1NC(=O)[C@@H](Cc2ccc3ccccc3c2)NC(=O)[C@H](CCCNC(=N)N)NC(=O)[C@H](C)NC(=O)[C@@H](Cc2cccnc2)NC(=O)[C@@H](Cc2ccc(Cl)cc2)NC(=O)[C@@H](Cc2ccc3ccccc3c2)NC(=O)CCC(=O)NCCCC[C@@H](C(=O)N2CCC[C@H]2C(=O)N[C@H](C)C(N)=O)NC1=O	–	21 nM	–
CC(=O)N[C@H](Cc1ccc2ccccc2c1)C(=O)N[C@H](Cc1ccc(Cl)cc1)C(=O)N[C@@H]1CC(=O)NC[C@@H](C(=O)N2CCC[C@H]2C(=O)N[C@H](C)C(N)=O)NC(=O)[C@H](CC(C)C)NC(=O)[C@@H](Cc2ccc3ccccc3c2)NC(=O)[C@H](CCCN=C(N)N)NC(=O)[C@H](C)NC1=O [listing 1 of 2 here]	–	–	Ovulating rats [2]: 4
CC(=O)N[C@H]1CCC(=O)NCC(=O)NCC[C@@H]2NC(=O)[C@H](CC(=O)NC[C@@H](C(N)=O)NC(=O)[C@@H]3CCCN3C(=O)[C@H](CCCNC(=N)N)NC(=O)[C@H](CC(C)C)NC(=O)[C@@H](Cc3ccc4ccccc4c3)NC2=O)NC(=O)[C@@H](Cc2c[nH]c3ccccc23)NC(=O)[C@@H](Cc2ccc(Cl)cc2)NC1=O	0.24 nM	–	–
CC(=O)N[C@H](Cc1ccc2ccccc2c1)C(=O)N[C@@H]1CCC(=O)NCCCC[C@@H](C(=O)N2CCC[C@H]2C(=O)N[C@H](C)C(N)=O)NC(=O)[C@H](CC(C)C)NC(=O)[C@@H](Cc2ccc3ccccc3c2)NC(=O)[C@H](CCCN=C(N)N)NC(=O)[C@H](C)NC(=O)[C@@H](Cc2cccnc2)NC1=O	–	110 nM	–
CC(C)C[C@H]1C(=O)N[C@@H](CCCN=C(N)N)C(=O)N2CCC[C@H]2C(=O)NCCC(=O)N2CC=C[C@H]2C(=O)N[C@H](Cc2ccc(Cl)cc2)C(=O)N[C@H](Cc2c[nH]c3ccccc23)C(=O)N[C@@H](CO)C(=O)N[C@@H](Cc2ccc(O)cc2)C(=O)N[C@H](Cc2c[nH]c3ccccc23)C(=O)N1C (cyclo([NMeL]RP[βAla][ΔPro][dPhe(4-Cl)][dW]SY[dW]))	14 nM	–	–
CC(=O)N[C@H](Cc1ccc2ccccc2c1)C(=O)N[C@H](Cc1ccc(Cl)cc1)C(=O)N[C@@H]1CC(=O)NCCC[C@@H](C(=O)N2CCC[C@H]2C(=O)N[C@H](C)C(N)=O)NC(=O)[C@H](CC(C)C)NC(=O)[C@@H](Cc2ccc3ccccc3c2)NC(=O)[C@H](CCCNC(=N)N)NC(=O)[C@H](C)NC1=O	14 nM	–	–
CC(=O)N[C@H](Cc1ccc2ccccc2c1)C(=O)N[C@H](Cc1ccc(Cl)cc1)C(=O)N[C@@H]1CC(=O)NCC[C@@H](C(=O)N2CCC[C@H]2C(=O)N[C@H](C)C(N)=O)NC(=O)[C@H](CC(C)C)NC(=O)[C@@H](Cc2ccc3ccccc3c2)NC(=O)[C@H](CCCNC(=N)N)NC(=O)[C@H](C)NC1=O	13 nM	–	–
CC(=O)N[C@H](Cc1ccc2ccccc2c1)C(=O)N[C@@H]1CC(=O)NC[C@@H](C(=O)N2CCC[C@H]2C(=O)N[C@H](C)C(N)=O)NC(=O)[C@H](CC(C)C)NC(=O)[C@@H](Cc2ccc3ccccc3c2)NC(=O)[C@H](CCCNC(=N)N)NC(=O)[C@H](C)NC(=O)[C@@H](Cc2cccnc2)NC1=O [listing 2 of 2 here]	–	67 nM	–
CC(=O)N[C@H](Cc1ccc2ccccc2c1)C(=O)N[C@H](Cc1ccc(Cl)cc1)C(=O)N[C@@H]1CC(=O)NC[C@@H](C(=O)N2CCC[C@H]2C(=O)N[C@H](C)C(N)=O)NC(=O)[C@H](CC(C)C)NC(=O)[C@@H](Cc2ccc3ccccc3c2)NC(=O)[C@H](CCCN=C(N)N)NC(=O)[C@H](C)NC1=O [listing 2 of 2 here]	21 nM	–	–
CC(=O)N[C@H](Cc1ccc2ccccc2c1)C(=O)N[C@H](Cc1ccc(F)cc1)C(=O)N[C@H](Cc1cccnc1)C(=O)N[C@H]1CC(=O)NC[C@@H](C(N)=O)NC(=O)[C@@H]2CCCN2C(=O)[C@@H]2CCNC(=O)CNC(=O)CC[C@H](NC1=O)C(=O)N[C@H](CCCN=C(N)N)C(=O)N[C@@H](CC(C)C)C(=O)N2	–	0.12 nM	–
CC(=O)N[C@H](Cc1ccc2ccccc2c1)C(=O)N[C@@H]1CCC(=O)NCCCC[C@@H]2NC(=O)[C@H](CC(C)C)NC(=O)[C@@H](Cc3ccc4ccccc4c3)NC(=O)[C@H](CCCN=C(N)N)NC(=O)[C@H](CC(=O)NC[C@@H](C(N)=O)NC(=O)[C@@H]3CCCN3C2=O)NC(=O)[C@@H](Cc2cccnc2)NC1=O [listing 2 of 2 here]	–	–	Ovulating rats [2]: 4
CC(=O)N[C@H]1CC(=O)NCC(=O)NCC[C@@H]2NC(=O)[C@H](CC(=O)NC[C@@H](C(N)=O)NC(=O)[C@@H]3CCCN3C(=O)[C@H](CCCN=C(N)N)NC(=O)[C@H](CC(C)C)NC(=O)[C@@H](Cc3ccc4ccccc4c3)NC2=O)NC(=O)[C@@H](Cc2c[nH]c3ccccc23)NC(=O)[C@@H](Cc2ccc(Cl)cc2)NC1=O	0.22 nM	–	–

Now from value to compound, other results behind:

Ki [1]	Ki ([1]; hek293)	SMILES	also measured
0.27 nM	–	CC(=O)N1CC=C[C@H]1C(=O)N[C@H](Cc1ccc(F)cc1)C(=O)N[C@H](Cc1c[nH]c2ccccc12)C(=O)N[C@H]1CC(=O)NC[C@@H](C(N)=O)NC(=O)[C@@H]2CCCN2C(=O)[C@H](CCCN=C(N)N)NC(=O)[C@H](CC(C)C)NC(=O)[C@@H](Cc2ccc3ccccc3c2)NC(=O)[C@H](Cc2ccc(O)cc2)NC1=O (Ac-[ΔPro][dPhe(4-F)][dW]DY[d2Nal]LRP[Dap]-NH2; lactam 4-10)	–
–	11 nM	CC(=O)N[C@H](Cc1ccc2ccccc2c1)C(=O)N[C@H](Cc1ccc(Cl)cc1)C(=O)N[C@@H]1CC(=O)NCCCC[C@@H]2NC(=O)[C@H](CC(C)C)NC(=O)[C@@H](Cc3ccc4ccccc4c3)NC(=O)[C@H](CCCNC(=N)N)NC(=O)[C@H](CC(=O)NC[C@@H](C(N)=O)NC(=O)[C@@H]3CCCN3C2=O)NC1=O	–
9.9 nM	–	CC(=O)N[C@H](Cc1ccc2ccccc2c1)C(=O)N[C@H](Cc1ccc(Cl)cc1)C(=O)N[C@@H]1CSSC[C@@H](C(=O)N2CCC[C@H]2C(=O)N[C@H](C)C(N)=O)NC(=O)[C@H](CC(C)C)NC(=O)[C@@H](Cc2ccc3ccccc3c2)NC(=O)[C@H](CCCN=C(N)N)NC(=O)[C@H](C)NC1=O	–
–	0.32 nM	CC(=O)N[C@H](Cc1ccc2ccccc2c1)C(=O)N[C@H](Cc1ccc(F)cc1)C(=O)N[C@H](Cc1c[nH]c2ccccc12)C(=O)N[C@H]1CC(=O)NC[C@@H](C(N)=O)NC(=O)[C@@H]2CCCN2C(=O)[C@@H]2CCCCNC(=O)CC[C@H](NC1=O)C(=O)N[C@H](CCCN=C(N)N)C(=O)N[C@@H](CC(C)C)C(=O)N2	–
–	23 nM	CC(=O)N[C@H](Cc1ccc2ccccc2c1)C(=O)N[C@H](Cc1ccc(Cl)cc1)C(=O)N[C@@H]1CCC(=O)NCCCC[C@@H](C(=O)N2CCC[C@H]2C(=O)N[C@H](C)C(N)=O)NC(=O)[C@H](CC(C)C)NC(=O)[C@@H](Cc2ccc3ccccc3c2)NC(=O)[C@H](CCCNC(=N)N)NC(=O)[C@H](CO)NC1=O	–
–	55 nM	CC(=O)N[C@@H]1CCC(=O)NCCCC[C@@H](C(=O)N2CCC[C@H]2C(=O)N[C@@H](C)C(N)=O)NC(=O)[C@H](CC(C)C)NC(=O)[C@H](Cc2ccc3ccccc3c2)NC(=O)[C@H](CCCNC(=N)N)NC(=O)[C@H](C)NC(=O)[C@H](Cc2cccnc2)NC(=O)[C@H](Cc2ccc(Cl)cc2)NC1=O	Ovulating rats [2]: 4
–	490 nM	CC(=O)N[C@H](Cc1ccc2ccccc2c1)C(=O)N[C@H]1CC(=O)NCC(=O)NC[C@@H]2NC(=O)[C@H](Cc3ccc(O)cc3)NC(=O)[C@H](CC(=O)NC[C@@H](C(N)=O)NC(=O)[C@@H]3CCCN3C(=O)[C@H](CCCN=C(N)N)NC(=O)[C@H](CC(C)C)NC2=O)NC(=O)[C@@H](Cc2c[nH]c3ccccc23)NC1=O	Ovulating rats [2]: 4
–	62 nM	CC(=O)N[C@H]1CCC(=O)NCCCC[C@@H](C(=O)N2CCC[C@H]2C(=O)N[C@@H](C)C(N)=O)NC(=O)[C@H](CC(C)C)NC(=O)[C@H](Cc2ccc3ccccc3c2)NC(=O)[C@H](CCCNC(=N)N)NC(=O)[C@H](C)NC(=O)[C@H](Cc2cccnc2)NC(=O)[C@H](Cc2ccc(Cl)cc2)NC1=O	Ovulating rats [2]: 4
–	3.1 nM	CC(=O)N[C@H]1CC(=O)NCC(=O)NCC[C@H]2NC(=O)[C@H](CC(=O)NC[C@@H](C(N)=O)NC(=O)[C@@H]3CCCN3C(=O)[C@H](CCCN=C(N)N)NC(=O)[C@H](CC(C)C)NC(=O)[C@@H](Cc3ccc4ccccc4c3)NC2=O)NC(=O)[C@@H](Cc2c[nH]c3ccccc23)NC(=O)[C@@H](Cc2ccc(Cl)cc2)NC1=O	–
2.3 nM	–	CC(=O)N[C@H](Cc1ccc2ccccc2c1)C(=O)N[C@H](Cc1ccc(Cl)cc1)C(=O)N[C@@H]1CC(=O)NCCCC[C@@H](C(=O)N2CCC[C@H]2C(=O)N[C@H](C)C(N)=O)NC(=O)[C@H](CC(C)C)NC(=O)[C@@H](Cc2ccc3ccccc3c2)NC(=O)[C@H](CCCN=C(N)N)NC(=O)[C@H](C)NC1=O	–
–	17 nM	CC(=O)N[C@H](Cc1ccc2ccccc2c1)C(=O)N[C@H](Cc1ccc(Cl)cc1)C(=O)N[C@@H]1CC(=O)NCCCC[C@@H]2NC(=O)[C@H](CC(C)C)NC(=O)[C@@H](CCCNC(=N)N)NC(=O)[C@H](Cc3ccc(O)cc3)NC(=O)[C@H](CC(=O)NC[C@@H](C(N)=O)NC(=O)[C@@H]3CCCN3C2=O)NC1=O	–
–	0.38 nM	CC(=O)N[C@@H]1CC(=O)NCC(=O)NCC[C@H]2NC(=O)[C@@H](CC(=O)NC[C@H](C(N)=O)NC(=O)[C@H]3CCCN3C(=O)[C@H](CCCN=C(N)N)NC(=O)[C@@H](CC(C)C)NC(=O)[C@@H](Cc3ccc4ccccc4c3)NC2=O)NC(=O)[C@@H](Cc2ccc3ccccc3c2)NC(=O)[C@H](Cc2ccc(Cl)cc2)NC1=O	Ovulating rats [3]: 2; Ovulating rats [4]: 5

— ChEMBL document CHEMBL1132959, “Design of potent dicyclic (1-5/4-10) gonadotropin releasing hormone (GnRH) antagonists” (J Med Chem, 2000)
